Laboratory results as given in patent US10342766B2, “6-shogaol derivatives and activities thereof” (North Carolina Agricultural and Technical State University, priority 2017, dated 2019).
Entries after “also recorded” stand apart in the source; their conditions may differ.

What was measured:
[1] = Formation of cysteine conjugates in mice (urine, LC/MS); format: in vivo, mouse; details: oral gavage 200 mg/kg, urine collected in 24 h
Protocol: LC/MS analysis was carried out with a Thermo-Finnigan Spectra System, which consisted of an Accela high speed MS pump, an Accela refrigerated autosampler, and an LCQ Fleet ion trap mass detector (Thermo Electron, San Jose, Calif., United States of America) incorporated with an electrospray ionization (ESI) interface. A Gemini-NX C18 column (150 mm×4.6 mm i.d., 5 μm; Phenomenex, Torrance, Calif., United States of America) was used for separation at a flow rate of 0.3 mL/min. The column was eluted with 100% A (5% aqueous methanol with 0.2% formic acid) for 1 min, followed by linear increases in B (95% aqueous methanol with 0.2% formic acid) to 55% from 1 to 4 min, to 85% from 4 to 25 min, then to 100% B from 25 to 30 min, and then with 100% B from 30 to 35 min. The column was then re-equilibrated with 100% A for 5 min. The LC eluent was introduced into the ESI interface. The positive ion polarity mode was set for the ESI source with the voltage on the ESI interface maintained at approximately 4.6 kV. Nitrogen gas was used as the sheath gas and auxiliary gas. […] The mass range was measured from 100 to 800 m/z. […]
Enzymatic deconjugation of mouse urine was performed as described previously with slight modifications. […] The resulting suspension was centrifuged at 17,000 g for 5 min, and 10 μL of supernatant was analyzed directly by LC/MS.

heme oxygenase-1 (HO-1) = experiment: Western blotting of HO-1 expression in CCD 841 CoN cells; format: cell-based, human
Protocol: Human normal colonic epithelial cells (CCD 841 CoN) were grown in Eagle's Minimum Essential Medium with 10% fetal bovine serum and 1% penicillin/streptomycin, and maintained at 37° C. in a 100% humidified atmosphere of 5% CO2 and 95% air. Fresh growth medium was added to the cells every two days until confluent. Cells were planted in 145×20 mm flat-bottomed tissue culture dishes and growth to 70-80% confluence and then treated with compound 27 for various doses and time points. At the end of incubation period, cell lysates were prepared in ice-cold Cell Lysis Buffer (Cell Signaling, Danvers, Mass., United States of America) with 1% protease inhibitor cocktail and 1% phenylmethylsulfonyl fluoride (Sigma, St. Louis, Mo., United States of America). Protein concentrations were measured using BCA Protein Assay Kit (Thermo Scientific, Rockford, Ill., United States of America). […] The bound complexes were detected with SuperSignal Chemiluminescent Substract (Thermo Scientific, Rockford, Ill., United States of America). The immunoblot bands were quantified by densitometry analysis, and the ratio to β-actin was calculated and presented.

With `CCCCCCCC(=O)/C=C/c1ccc(O)c(O)c1` [Compound 27] the “Cysteine conjugates found in mouse urine” value [1] was “conjugate 36 and its reduced form 36a, three additional conjugates 37, 37a, and 37b”, the “HO-1 expression, time dependence” value (heme oxygenase-1 (HO-1); 10 μM for 3, 6, 12 and 24 h, vs control (0 h)) was “significantly increased HO-1 expression; also recorded: increased HO-1 expression in a time-dependent manner” and the “HO-1 protein expression, dose dependence” value (heme oxygenase-1 (HO-1); 5, 10 and 20 μM for 24 h, vs untreated control) was “significantly increased HO-1 protein expression; also recorded: increased HO-1 expression in a dose-dependent manner”.
